Laboratory results from article PMC4603705, “A bioinspired peptide scaffold with high antibiotic activity and low in vivo toxicity” (Scientific Reports, 2015).
≈ marks a conversion by molar mass, not a printed value. Where “and” joins values, the source holds several entries; their conditions need not be identical. Identical values can stand only once. Bridge positions count the residues as written; N and C are the ends. Square brackets hold non-standard residues; d marks the D form. Peptide text beside a SMILES is read from it. * marks the point of attachment. Nonanoyl = CCCCCCCCC(=O)*; Dab = NCC[C@H](N)C(=O)O

Key:
[1] = tested on: E. coli (ATCC 25922); test: Flow cytometry (PI membrane permeability, BOX membrane potential), E. coli; assay type: cell-based, Escherichia coli; details: 5 μg/mL
Description: The mechanism of action at the membrane level of our best candidate was studied using flow cytometry. To assess membrane permeability, a propidium iodide (PI) probe was used[43][44]. The fluorescence conferred by this probe is generally associated with cells that have lost their membrane integrity. The effect on membrane potential was evaluated with bis-(1,3-dibutylbarbituric acid) trimethine oxonol (BOX). Membrane depolarization leads to the incorporation of this anionic dye into the cell where it binds to lipid-rich intracellular compounds, resulting in an increase in fluorescence.
(§1) An overnight culture (12 to 16 h) of S. aureus (ATCC 29213) or E. coli (ATCC 25922) in Tryptic Soy Broth (TSB) was grown at 37 °C and 400 μL were added in 50 mL of tryptone water (∼10^7 bacteria/mL). The bacterial suspension was split into aliquots of 4-5 mL and treated with the peptides (at the MIC) for different incubation times at room temperature. Cells were collected by centrifugation (10000 rpm, 20 min) and resuspended in 1 mL of filtered Ringer’s solution.
A stock solution of propidium iodide (PI, 1 mg/mL, Molecular Probes) and bis-(1,3-dibutylbarbituric acid) trimethine oxonol (BOX, 250 μM, Sigma Aldrich) was prepared in distilled water. Portions (10 μL and 2 μL, respectively) were added to aliquots of cells (100 μL of each sample in 1 mL of Ringer’s solution) to give a final concentration of 10 μg/mL of PI and 0.5 μM for BOX.
Flow cytometric measurements were performed on a Gallios multi-colour flow cytometer instrument (Beckman Coulter, Inc, Fullerton, CA) set up with the 3-lasers 10 colors standard configuration. Excitation was done using a blue (488 nm) laser. Forward scatter (FS), side scatter (SS), green fluorescence (525/40 nm) from BOX and red fluorescence (620/30 nm) emitted by PI were collected using logarithmic scales. FS was used as the discriminating parameter. The single-cell bacterial population was selected on a forward-side scatter plot. Fluorescence was presented in a dot plot of BOX vs. PI. Three regions were defined on this graph according to the controls: depolarized, permeabilized and non-affected cells. Control cells (non-stained and single stained populations) were used to define these regions. 25,000 cells defined according to their scatter parameters were counted in each sample.

[2] = tested on: E. coli (ATCC 25922); test: Reduction of viability by plate count, E. coli; assay type: cell-based, Escherichia coli; details: 5 μg/mL
Description: as §1

[3] = tested on: P. aeruginosa ATTC 9027; assay type: cell-based, Pseudomonas aeruginosa; details: for MIC P. aeruginosa: ATTC 9027; for MIC P. a.: Supplementary Table S1, P. aeruginosa
Description: (§2) MICs were measured after 18–20 h of incubation in sterile 96-well plates (Corning Costar 3598 microtiter plates) in Mueller Hinton Broth (MHB) culture medium, (Difco, USA), according to well known in vitro protocols. Bacterial strains in Table 1 were: P. aeruginosa ATTC 9027, E. coli ATTC 8739, S. aureus ATTC 6538, and E. faecalis ATTC 29212. MICs shown in table 4 were performed by Mary Conrad at Cubist Pharmaceuticals (Lexington, MA) in non-binding surface plates.

[4] = tested on: E. coli ATTC 8739; assay type: cell-based, Escherichia coli; details: for MIC E. coli: ATTC 8739; for MIC E. c.: Supplementary Table S1, E. coli
Description: as §2

[5] = tested on: human dermic fibroblasts (hDF); test: In vitro cytotoxicity (WST-1 cell viability), hDF; assay type: cell-based; details: for IC50 hDF Exp1: Supplementary Table S2, experiment 1; for IC50 hDF Exp2: Supplementary Table S2, experiment 2; for IC50 hDF: cytotoxicity, WST-1
Description: (§3) Cell viability assays were performed using the tetrazolium dye WST1 (similar to MTT) on human dermal fibroblasts (3T3 hDF), MDCK (renal model, Madin-Darby canine kidney cells) and PC12 (NGF treated; neuronal model) cell lines and followed standard protocols. Briefly, cells were seeded into 96-well plates, after incubation for 24 h, the medium was replaced with fresh cell culture medium containing the products (range 0-1.2 mg/mL). Negative and positive controls consisted of plates in the absence of the test compound and plates with sodium dodecyl sulfate (0.02% w/v), respectively. Cell viability was assayed with the tetrazolium salt (4-[3-(4- iodophenyl)-2-(4-nitrophenyl)-2H-5-tetrazolio]-1,3-benzene disulfonate) (WST-1). The relative WST-1 absorbance was recorded at 450 nm.
(§4) The products at concentrations ranging from 0 to 1.2 mg/mL were tested (triplicate) and in two independent experiments. The statistical analysis of the data was performed by using non-linear regression (curve-fit) and the model used agreed with the four parameter logistic model (4PL), also called the Hill-Slope model (sigmoid model), with the following equation: […]
(§5) where y is the percent activity and x is the corresponding concentration. The quantities determined where the point estimate IC50 (Half maximal (50%) inhibitory concentration (IC) of a substance, see Table II), the corresponding 95% confidence interval and R^2 (measures the goodness of fit) are shown in the Supplementary Table S2.

[6] = tested on: Madine-Darby canine kidney cells (MDCK, renal model); test: In vitro cytotoxicity (WST-1 cell viability), MDCK; assay type: cell-based; details: for IC50 MDCK Exp1: Supplementary Table S2, experiment 1; for IC50 MDCK Exp2: Supplementary Table S2, experiment 2; for IC50 MDCK: cytotoxicity, WST-1
Description: as §3, §4, §5

[7] = tested on: PC12 (treated with NGF, neuronal model); test: In vitro cytotoxicity (WST-1 cell viability), PC12; assay type: cell-based; details: WST-1, NGF treated
Description: as §3, §4, §5

[8] = tested on: E. coli
Description: (§6) Strains of E. coli and P. aeruginosa with resistance to quinolones and carbapenems as well as multi-drug-resistant bacteria were tested.
as §2

[9] = tested on: P. aeruginosa
Description: as §6, §2

[10] = tested on: S. aureus ATTC 6538; test: microbe, parasite or virus in culture; assay type: cell-based, Staphylococcus aureus; details: for MIC S. aureus: ATTC 6538; for MIC S. a.: Supplementary Table S1, S. aureus
Description: as §2

[11] = resistant to nalidixic acid, cotrimoxazole and ampicillin

| Compound | MIC P. aeruginosa [3] | MIC E. coli [4] | MIC S. aureus [10] | MIC S. a. [10] | MIC P. a. [3] | MIC E. c. [4] | further results |
| --- | --- | --- | --- | --- | --- | --- | --- |
| PxB nonapeptide [PxBN] | – | – | – | – | – | – | % of stained cells BOX ([1]; 30 min): 5%; % of stained cells PI ([1]; 30 min): 10%; % of stained cells BOX ([1]; 60 min): 3%-6% and 6%; % of stained cells PI ([1]; 60 min): 3%-6% and 3%; % viability reduction ([2]; 30 min): 0%; % viability reduction ([2]; 60 min): 5% |
| CCCCCCCCC(=O)N[C@@H](CCCNC(=N)N)C(=O)N[C@H](C(=O)N[C@@H](CCCNC(=N)N)C(=O)N[C@H]1CSSC[C@@H](C(N)=O)NC(=O)[C@H](CCN)NC(=O)[C@H](CCCNC(=N)N)NC(=O)[C@H](CC(C)C)NC(=O)[C@@H](Cc2ccccc2)NC(=O)[C@H](CCN)NC1=O)[C@@H](C)O [Analog 8, nonanoyl-Arg-Thr-Arg-Cys-Dab-Phe-Leu-Arg-Dab-Cys] (Nonanoyl-RTRC[Dab][dF]LR[Dab]C-NH2; disulfide 4-10) | 8 µg/mL (≈ 5.75 µM) | 4 µg/mL (≈ 2.87 µM) | – | – | – | – | IC50 hDF Exp1 [5]: 421 µg/mL (≈ 302 µM); IC50 hDF Exp2 [5]: 502 µg/mL (≈ 361 µM); IC50 hDF [5]: 461 µg/mL (≈ 331 µM); IC50 MDCK Exp1 [6]: 417 µg/mL (≈ 299 µM); IC50 MDCK Exp2 [6]: 528 µg/mL (≈ 379 µM); IC50 MDCK [6]: 472 µg/mL (≈ 339 µM); IC50 PC12 [7]: 595 µg/mL (≈ 428 µM) |
| colistin [PxE, reference compound] | – | – | – | – | – | – | MIC E. coli NDM-1 ([8]; highly-resistant, New Delhi metallo-beta-lactamase gene): 0.5 µg/mL; MIC E. coli VAL 5 ([8]; resistant to nalidixic acid): 0.25 µg/mL; MIC E. coli MAC 21a [8, 11]: 0.5 µg/mL; MIC E. coli VAL 10 [8, 11]: 0.5 µg/mL; MIC P. aeruginosa 38a ([9]; resistant to ceftazidime, ciprofloxacin, imipenem, piperacillin-tazobactam): 1 µg/mL; MIC P. aeruginosa 40b ([9]; resistant to imipenem): 1 µg/mL |
| CCCCCCCCC(=O)N[C@@H](CCCNC(=N)N)C(=O)N[C@H](C(=O)N[C@@H](CCN)C(=O)N[C@H]1CSSC[C@@H](C(N)=O)NC(=O)[C@H](CCN)NC(=O)[C@H](CCCNC(=N)N)NC(=O)[C@H](CC(C)C)NC(=O)[C@@H](Cc2ccccc2)NC(=O)[C@H](CCN)NC1=O)[C@@H](C)O [Analog 5, nonanoyl-Arg-Thr-Dab-Cys-Dab-Phe-Leu-Arg-Dab-Cys] (Nonanoyl-RT[Dab]C[Dab][dF]LR[Dab]C-NH2; disulfide 4-10) | 16 µg/mL (≈ 12 µM) | 8 µg/mL (≈ 5.99 µM) | – | – | – | – | IC50 hDF Exp1 [5]: 555 µg/mL (≈ 416 µM); IC50 hDF Exp2 [5]: 513 µg/mL (≈ 384 µM); IC50 hDF [5]: 534 µg/mL (≈ 400 µM); IC50 MDCK Exp1 [6]: 541 µg/mL (≈ 405 µM); IC50 MDCK Exp2 [6]: 554 µg/mL (≈ 415 µM); IC50 MDCK [6]: 548 µg/mL (≈ 410 µM); IC50 PC12 [7]: 629 µg/mL (≈ 471 µM) |
| CCCCCCCCC(=O)N[C@@H](CCN)C(=O)N[C@H](C(=O)N[C@@H](CCCNC(=N)N)C(=O)N[C@H]1CSSC[C@@H](C(N)=O)NC(=O)[C@H](CCN)NC(=O)[C@H](CCN)NC(=O)[C@H](CC(C)C)NC(=O)[C@@H](Cc2ccccc2)NC(=O)[C@H](CCN)NC1=O)[C@@H](C)O [Analog 3, nonanoyl-Dab-Thr-Arg-Cys-Dab-Phe-Leu-Dab-Dab-Cys] (Nonanoyl-[Dab]TRC[Dab][dF]L[Dab][Dab]C-NH2; disulfide 4-10) | 4 µg/mL (≈ 3.13 µM) | 8 µg/mL (≈ 6.25 µM) | >32 µg/mL | – | – | – | – |
| C9-Arg-Thr-Arg-Cys-Dab-Phe-Leu-Dab-Dab-Cys [Analog 7] | – | – | – | 32 µg/mL | 32 µg/mL | 32 µg/mL | – |
| C9-Arg-Thr-Dab-Cys-Dab-Trp-Leu-Arg-Dab-Cys [Analog 28] | – | – | – | 8 µg/mL | 8 µg/mL | 4 µg/mL | – |
| C9-Arg-Thr-Orn-Cys-Dab-Phe-Leu-Arg-Orn-Cys [Analog 34] | – | – | – | 32 µg/mL | 16 µg/mL | 8 µg/mL | – |
| CCCCCCCCC(=O)N[C@@H](CCN)C(=O)N[C@H](C(=O)N[C@@H](CCN)C(=O)N[C@H]1CSSC[C@@H](C(N)=O)NC(=O)[C@H](CCN)NC(=O)[C@H](CCCNC(=N)N)NC(=O)[C@H](CC(C)C)NC(=O)[C@@H](Cc2ccccc2)NC(=O)[C@H](CCN)NC1=O)[C@@H](C)O [Analog 4, nonanoyl-Dab-Thr-Dab-Cys-Dab-Phe-Leu-Arg-Dab-Cys] (Nonanoyl-[Dab]T[Dab]C[Dab][dF]LR[Dab]C-NH2; disulfide 4-10) | 2 to 4 µg/mL | 8 µg/mL (≈ 6.25 µM) | >32 µg/mL | – | – | – | – |
| CCCCCCCCC(=O)N[C@@H](CCCNC(=N)N)C(=O)N[C@H](C(=O)N[C@@H](CCN)C(=O)N[C@H]1CSSC[C@H](C(N)=O)NC(=O)[C@H](CCN)NC(=O)[C@H](CCCNC(=N)N)NC(=O)[C@H](CC(C)C)NC(=O)[C@@H](Cc2ccccc2)NC(=O)[C@H](CCN)NC1=O)[C@@H](C)O [Analog 13, nonanoyl-Arg-Thr-Dab-Cys-Dab-Phe-Leu-Arg-Dab-Cys] (Nonanoyl-RT[Dab]C[Dab][dF]LR[Dab][dC]-NH2; disulfide 4-10) | 8 µg/mL (≈ 5.99 µM) | 4 µg/mL (≈ 2.99 µM) | 16 µg/mL (≈ 12 µM) | – | – | – | – |
| C9-Arg-Thr-Dab-Cys-Dab-Gly-Gly-Arg-Dab-Cys [Analog 24] | – | – | – | > 128 µg/mL | > 128 µg/mL | > 128 µg/mL | – |
| CCCCCCCCC(=O)N[C@@H](CCCNC(=N)N)C(=O)N[C@H](C(=O)N[C@@H](CCCNC(=N)N)C(=O)N[C@H]1CSSC[C@@H](C(N)=O)NC(=O)[C@H](CCCNC(=N)N)NC(=O)[C@H](CCCNC(=N)N)NC(=O)[C@H](CC(C)C)NC(=O)[C@@H](Cc2ccccc2)NC(=O)[C@H](CCN)NC1=O)[C@@H](C)O [Analog 10, nonanoyl-Arg-Thr-Arg-Cys-Dab-Phe-Leu-Arg-Arg-Cys] (Nonanoyl-RTRC[Dab][dF]LRRC-NH2; disulfide 4-10) | 16 µg/mL (≈ 11.1 µM) | 32 µg/mL (≈ 22.1 µM) | 32 µg/mL (≈ 22.1 µM) | – | – | – | – |
